According to ChEMBL document CHEMBL4321867, “Optimization of LpxC Inhibitor Lead Compounds Focusing on Efficacy and Formulation for High Dose Intravenous Administration” (J Med Chem, 2020):
≈ marks a conversion by molar mass, not a printed value.

Legend:
Escherichia coli = assay: microbe, parasite or virus in culture; details: ATCC 25922
physchem [1] = details: buffer, pH 7
physchem [2] = details: buffer, pH 4
Klebsiella pneumoniae = assay: microbe, parasite or virus in culture; details: T6474
Pseudomonas aeruginosa = assay: microbe, parasite or virus in culture; details: ATCC 27853
physchem [3] = details: n-octanol/phosphate buffer, pH 7.4
physchem [4] = assay: physchem
physchem [5] = details: buffer, pH 9
[6] = test system: T1, UDP-3-O-acyl-N-acetylglucosamine deacetylase (Pseudomonas aeruginosa (strain ATCC 15692 / PAO1 / 1C / PRS 101 / LMG12228)), P47205 [C40S]; details: 25 uM
T1 sequence (whole entry): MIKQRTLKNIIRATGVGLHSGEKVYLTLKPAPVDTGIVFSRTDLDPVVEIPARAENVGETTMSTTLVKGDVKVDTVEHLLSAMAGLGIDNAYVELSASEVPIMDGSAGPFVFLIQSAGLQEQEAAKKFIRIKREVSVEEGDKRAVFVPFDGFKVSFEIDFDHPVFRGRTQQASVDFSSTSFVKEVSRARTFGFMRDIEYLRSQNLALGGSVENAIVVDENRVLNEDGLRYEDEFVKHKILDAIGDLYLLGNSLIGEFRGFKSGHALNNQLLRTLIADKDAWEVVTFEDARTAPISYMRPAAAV

[7] = test system: T2, UDP-3-O-acyl-N-acetylglucosamine deacetylase (Escherichia coli K-12), P0A725 [C125S]; details: 25 uM
T2 sequence (whole entry): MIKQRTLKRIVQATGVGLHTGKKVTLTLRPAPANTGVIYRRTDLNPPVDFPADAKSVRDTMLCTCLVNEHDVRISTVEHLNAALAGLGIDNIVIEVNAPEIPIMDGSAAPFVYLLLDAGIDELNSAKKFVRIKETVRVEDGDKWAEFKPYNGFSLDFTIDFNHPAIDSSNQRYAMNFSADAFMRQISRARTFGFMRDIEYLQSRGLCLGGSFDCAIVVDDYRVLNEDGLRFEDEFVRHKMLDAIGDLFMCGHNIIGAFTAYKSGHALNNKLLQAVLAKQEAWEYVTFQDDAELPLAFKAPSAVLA

in vitro [8] = details: rat, liver microsomes
in vitro [9] = details: rat, hepatocytes
in vivo = details: mouse, sc, 150 mg/kg

Structure (SMILES)	MIC (Escherichia coli)	solubility at 24 h (physchem [1])	solubility at 24 h (physchem [2])	MIC (Klebsiella pneumoniae)	MIC (Pseudomonas aeruginosa)	logD (physchem [3])	pKa (physchem [4])	solubility at 24 h (physchem [5])	deltaTm [6]	deltaTm [7]	microsomal CLint at 1 µM (in vitro [8])	hepatocyte CLint at 1 µM (in vitro [9])	AUC(0-t) at 24 h (in vivo)
C[C@@](CCN1Cc2cc(C#CC#CC3CCN(C4COC4)CC3)cn2C1=O)(C(=O)NO)S(C)(=O)=O	0.5 µg/mL (≈ 0.995 µM)	329 µg/mL (≈ 655 µM)	> 850 µg/mL	1 µg/mL (≈ 1.99 µM)	2 µg/mL (≈ 3.98 µM)	1.1	6.2	> 850 µg/mL	13.2 K	11.1 K	–	–	–
C[C@@](CCN1Cc2cc(C#CC#C[C@@H]3C[C@H]3CO)cn2C1=O)(C(=O)NO)S(C)(=O)=O	0.12 µg/mL (≈ 0.277 µM)	602 µg/mL (≈ 1390 µM)	600 µg/mL (≈ 1380 µM)	0.25 µg/mL (≈ 0.577 µM)	0.5 µg/mL (≈ 1.15 µM)	–	–	552 µg/mL (≈ 1270 µM)	–	–	< 10 µL/min/mg	13.4 µL/min/1e6 cells	–
CNC1(C#CC#Cc2cc3n(c2)C(=O)N(CC[C@](C)(C(=O)NO)S(C)(=O)=O)C3)CC1	0.12 µg/mL (≈ 0.277 µM)	182 µg/mL (≈ 421 µM)	551 µg/mL (≈ 1270 µM)	0.25 µg/mL (≈ 0.578 µM)	0.5 µg/mL (≈ 1.16 µM)	1.4	6.5	486 µg/mL (≈ 1120 µM)	12.2 K	10.6 K	–	–	–
C[C@@](CCN1Cc2cc(C#CC#CC3CNC3)cn2C1=O)(C(=O)NO)S(C)(=O)=O	8 µg/mL (≈ 19.1 µM)	> 710 µg/mL	> 710 µg/mL	4 µg/mL (≈ 9.56 µM)	1 µg/mL (≈ 2.39 µM)	-1	9.4	> 710 µg/mL	9.3 K	8 K	–	–	–
CCN1CC(C#CC#Cc2cc3n(c2)C(=O)N(CC[C@](C)(C(=O)NO)S(C)(=O)=O)C3)C1	0.25 µg/mL (≈ 0.56 µM)	> 750 µg/mL	> 750 µg/mL	0.5 µg/mL (≈ 1.12 µM)	0.5 µg/mL (≈ 1.12 µM)	0.6	8.5	> 750 µg/mL	10.4 K	9.3 K	–	–	–
CN1CCC(F)(C#CC#Cc2cc3n(c2)C(=O)N(CC[C@](C)(C(=O)NO)S(C)(=O)=O)C3)CC1	0.5 µg/mL (≈ 1.04 µM)	384 µg/mL (≈ 802 µM)	> 810 µg/mL	1 µg/mL (≈ 2.09 µM)	1 µg/mL (≈ 2.09 µM)	1	8	203 µg/mL (≈ 424 µM)	12 K	9.6 K	–	–	–
C[C@@](CCN1Cc2cc(C#CC#CC3(F)CNC3)cn2C1=O)(C(=O)NO)S(C)(=O)=O	1 µg/mL (≈ 2.29 µM)	175 µg/mL (≈ 401 µM)	> 740 µg/mL	2 µg/mL (≈ 4.58 µM)	2 µg/mL (≈ 4.58 µM)	0.3	8	279 µg/mL (≈ 639 µM)	10 K	7.1 K	–	–	–
CN1CC(F)(C#CC#Cc2cc3n(c2)C(=O)N(CC[C@](C)(C(=O)NO)S(C)(=O)=O)C3)C1	0.12 µg/mL (≈ 0.266 µM)	219 µg/mL (≈ 486 µM)	> 760 µg/mL	0.5 µg/mL (≈ 1.11 µM)	2 µg/mL (≈ 4.44 µM)	1.1	6.7	> 760 µg/mL	11.6 K	8.1 K	–	–	–
CC(C)N1CC(C#CC#Cc2cc3n(c2)C(=O)N(CC[C@](C)(C(=O)NO)S(C)(=O)=O)C3)C1	0.25 µg/mL (≈ 0.543 µM)	398 µg/mL (≈ 864 µM)	> 780 µg/mL	0.25 µg/mL (≈ 0.543 µM)	0.5 µg/mL (≈ 1.09 µM)	1	8.3	420 µg/mL (≈ 912 µM)	11.2 K	9.6 K	–	–	–
C[C@@](CCN1Cc2cc(C#CC#C[C@@H]3C[C@H]3[C@H](O)CO)cn2C1=O)(C(=O)NO)S(C)(=O)=O	0.25 µg/mL (≈ 0.539 µM)	> 780 µg/mL	618 µg/mL (≈ 1330 µM)	1 µg/mL (≈ 2.16 µM)	0.5 µg/mL (≈ 1.08 µM)	0.5	–	> 780 µg/mL	–	–	< 10 µL/min/mg	10 µL/min/1e6 cells	–
C[C@@](CCN1Cc2cc(C#CC#CC3CN(CC(F)F)C3)cn2C1=O)(C(=O)NO)S(C)(=O)=O	0.06 µg/mL (≈ 0.124 µM)	209 µg/mL (≈ 433 µM)	> 820 µg/mL	0.25 µg/mL (≈ 0.518 µM)	1 µg/mL (≈ 2.07 µM)	1.4	5.2	> 820 µg/mL	13.2 K	10.6 K	–	–	–
C[C@]1(CO)C[C@@H]1C#CC#Cc1cc2n(c1)C(=O)N(CC[C@](C)(C(=O)NO)S(C)(=O)=O)C2	0.25 µg/mL (≈ 0.559 µM)	401 µg/mL (≈ 896 µM)	344 µg/mL (≈ 769 µM)	0.25 µg/mL (≈ 0.559 µM)	0.25 µg/mL (≈ 0.559 µM)	1.6	–	506 µg/mL (≈ 1130 µM)	–	–	< 10 µL/min/mg	55 µL/min/1e6 cells	–
CN(C)C1(C#CC#Cc2cc3n(c2)C(=O)N(CC[C@](C)(C(=O)NO)S(C)(=O)=O)C3)CC1	0.25 µg/mL (≈ 0.56 µM)	15 µg/mL (≈ 33.6 µM)	412 µg/mL (≈ 923 µM)	0.5 µg/mL (≈ 1.12 µM)	0.5 µg/mL (≈ 1.12 µM)	2.1	5.5	95 µg/mL (≈ 213 µM)	13.4 K	11.6 K	–	–	–
CC(=O)N1CC(C#CC#Cc2cc3n(c2)C(=O)N(CC[C@](C)(C(=O)NO)S(C)(=O)=O)C3)C1	1 µg/mL (≈ 2.17 µM)	> 780 µg/mL	> 780 µg/mL	1 µg/mL (≈ 2.17 µM)	1 µg/mL (≈ 2.17 µM)	0.3	–	> 780 µg/mL	12.4 K	9.7 K	–	–	–
C[C@@](CCN1Cc2cc(C#CC#CCN3CCC(O)CC3)cn2C1=O)(C(=O)NO)S(C)(=O)=O	1 µg/mL (≈ 2.1 µM)	> 810 µg/mL	> 810 µg/mL	2 µg/mL (≈ 4.2 µM)	1 µg/mL (≈ 2.1 µM)	0.4	6.5	> 810 µg/mL	11.5 K	9.5 K	–	–	–
C[C@@](CCN1Cc2cc(C#CC#CC3CN(C4COC4)C3)cn2C1=O)(C(=O)NO)S(C)(=O)=O	0.25 µg/mL (≈ 0.527 µM)	128 µg/mL (≈ 270 µM)	> 800 µg/mL	0.5 µg/mL (≈ 1.05 µM)	1 µg/mL (≈ 2.11 µM)	0.5	5.5	681 µg/mL (≈ 1440 µM)	12.6 K	10.5 K	–	–	–
CN1CC(C#CC#Cc2cc3n(c2)C(=O)N(CC[C@](C)(C(N)=O)S(C)(=O)=O)C3)C1	> 32 µg/mL	706 µg/mL (≈ 1700 µM)	> 700 µg/mL	> 32 µg/mL	> 32 µg/mL	0.5	8.4	92 µg/mL (≈ 221 µM)	0.3 K	0 K	–	–	–
C[C@@](CCN1Cc2cc(C#CC#CC3(CN)CC3)cn2C1=O)(C(=O)NO)S(C)(=O)=O	8 µg/mL (≈ 18.5 µM)	552 µg/mL (≈ 1280 µM)	> 730 µg/mL	16 µg/mL (≈ 37 µM)	16 µg/mL (≈ 37 µM)	-0.4	9.2	> 730 µg/mL	10.7 K	9.6 K	–	–	–
CN1CCC(C#CC#Cc2cc3n(c2)C(=O)N(CC[C@](C)(C(=O)NO)S(C)(=O)=O)C3)CC1	4 µg/mL (≈ 8.69 µM)	> 780 µg/mL	> 780 µg/mL	4 µg/mL (≈ 8.69 µM)	1 µg/mL (≈ 2.17 µM)	0.2	9	574 µg/mL (≈ 1250 µM)	11.3 K	10.6 K	–	–	–
C[C@@](CCN1Cc2cc(C#CC#CC3(CO)CC3)cn2C1=O)(C(=O)NO)S(C)(=O)=O	0.25 µg/mL (≈ 0.577 µM)	384 µg/mL (≈ 886 µM)	149 µg/mL (≈ 344 µM)	1 µg/mL (≈ 2.31 µM)	0.5 µg/mL (≈ 1.15 µM)	0.9	–	553 µg/mL (≈ 1280 µM)	–	–	24 µL/min/mg	8.5 µL/min/1e6 cells	89500 ng·h/mL
C[C@@](CCN1Cc2cc(C#CC#C[C@H]3C[C@]3(F)CO)cn2C1=O)(C(=O)NO)S(C)(=O)=O	0.25 µg/mL (≈ 0.554 µM)	613 µg/mL (≈ 1360 µM)	354 µg/mL (≈ 784 µM)	0.5 µg/mL (≈ 1.11 µM)	0.5 µg/mL (≈ 1.11 µM)	0.9	–	> 760 µg/mL	–	–	16 µL/min/mg	13 µL/min/1e6 cells	–
CC(C)(O)CN1CC(C#CC#Cc2cc3n(c2)C(=O)N(CC[C@](C)(C(=O)NO)S(C)(=O)=O)C3)C1	0.5 µg/mL (≈ 1.02 µM)	> 830 µg/mL	> 830 µg/mL	1 µg/mL (≈ 2.04 µM)	0.5 µg/mL (≈ 1.02 µM)	0.7	7.8	> 830 µg/mL	12.1 K	10.3 K	–	–	47300 ng·h/mL
